Laboratory results reported in patent US8809376B2, “Indanyloxydihydrobenzofuranylacetic acids” (Boehringer Ingelheim International GmbH, priority 2012, dated 2014).

These molecules were tested against T1, human GPR40 receptor (Homo sapiens, UniProt O14842) (assay: Assay I: IP1 accumulation (IPOne assay system) in 1321N1 cells stably expressing human GPR40 receptor). Details: stimulated 1 hour at 37° C., 10% CO2, LiCl 50 mM.
Type: cell-based
Experimental: IP1 accumulation measurements using the IPOne assay system—1321N1 cells stably expressing human GPR40 receptor (Euroscreen, Belgium) are seeded 24 h before the assay in black clear-bottom collagen-coated 384-well plates in culture medium containing 10% FCS, 1% Na-Pyruvate and 400 μg/mL G418. IP1 is assayed according to the Manufacturer's description (Cisbio Bioassays, France). In brief, the assay is started by substitution of the culture medium by stimulation buffer (Hepes 10 mM, CaCl2 1 mM, MgCl2 0.5 mM, KCl 4.2 mM, NaCl 146 mM and glucose 5.5 mM, pH 7.4) without LiCl. Cells are stimulated for 1 hour at 37° C., 10% CO2 by addition of the compounds that are diluted in stimulation buffer containing LiCl yielding a final LiCl concentration of 50 mM. Assays are stopped by adding HTRF-conjugates (IP1-d2 and Anti-IP1 cryptate Tb) and lysis buffer, provided by the manufacturer. After an incubation time of 1 hour at room temperature plates are measured using an EnVision™, Perkin Elmer. The obtained fluorescence ratios at 665/615 nM are then used to calculate the pEC50 values using GraphPad Prism 5 (Graphpad Software Inc, USA) by interpolation using an IP1 reference curve and subsequent sigmoidal curve fitting allowing for a variable hill slope.

T1 sequence (O14842 whole entry): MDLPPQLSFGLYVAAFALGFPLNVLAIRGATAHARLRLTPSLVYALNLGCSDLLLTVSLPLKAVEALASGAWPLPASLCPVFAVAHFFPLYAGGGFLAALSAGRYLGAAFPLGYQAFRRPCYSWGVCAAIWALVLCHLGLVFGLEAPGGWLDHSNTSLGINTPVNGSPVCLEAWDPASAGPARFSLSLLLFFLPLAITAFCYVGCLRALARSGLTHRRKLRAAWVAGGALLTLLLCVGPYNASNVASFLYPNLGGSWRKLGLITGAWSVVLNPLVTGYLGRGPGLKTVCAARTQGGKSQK

Compound | EC50
N#Cc1ccc2c(c1Cc1ccccc1)CC[C@H]2Oc1ccc2c(c1)OC[C@H]2CC(=O)O [Example 1, {(S)-6-[(R)-4-Benzyl-5-cyano-indan-1-yloxy]-2,3-dihydro-benzofuran-3-yl}-acetic acid] | 5 nM
C[S+]([O-])c1ccc(Cc2c(C#N)ccc3c2CC[C@H]3Oc2ccc3c(c2)OC[C@H]3CC(=O)O)cc1 (stereo partly drawn) [Example 12, {(S)-6-[(R)-5-Cyano-4-(4-methylsulfinyl-benzyl)-indan-1-yloxy]-2,3-dihydro-benzofuran-3-yl}-acetic acid] | 479 nM
CS(=O)(=O)c1ccc(Cc2c(C#N)ccc3c2CC[C@H]3Oc2ccc3c(c2)OC[C@H]3CC(=O)O)cc1 [Example 8, {(S)-6-[(R)-5-Cyano-4-(4-methylsulfonyl-benzyl)-indan-1-yloxy]-2,3-dihydro-benzofuran-3-yl}-acetic acid] | 325 nM
Cc1ccccc1Cc1c(C#N)ccc2c1CC[C@H]2Oc1ccc2c(c1)OC[C@H]2CC(=O)O [Example 6, {(S)-6-[(R)-5-Cyano-4-(2-methyl-benzyl)-indan-1-yloxy]-2,3-dihydro-benzofuran-3-yl}-acetic acid] | 8 nM
CSc1ccc(Cc2c(C#N)ccc3c2CC[C@H]3Oc2ccc3c(c2)OC[C@H]3CC(=O)O)cc1 [Example 7, {(S)-6-[(R)-5-Cyano-4-(4-methylsulfanyl-benzyl)-indan-1-yloxy]-2,3-dihydro-benzofuran-3-yl}-acetic acid] | 18 nM

Each molecule was assayed against T1, human GPR40 receptor (assay: Assay II: IP1 accumulation (IPOne assay system) in 1321N1 cells stably expressing human GPR40 receptor). Details: stimulated 1 h at 37° C., 5% CO2, LiCl 50 mM.
Type: cell-based
Experimental: IP1 accumulation measurements using the IPOne assay system—1321N1 cells stably expressing human GPR40 receptor (Euroscreen, Belgium) are seeded 24 h before the assay in white 384-well plates in culture medium containing 10% FCS, 1% Na-Pyruvate and 400 μg/mL G418. IP1 is assayed according to the manufacturer's description (Cisbio Bioassays, France). In brief, the assay is started by substitution of the culture medium by stimulation buffer (Hepes 10 mM, CaCl2 1 mM, MgCl2 0.5 mM, KCl 4.2 mM, NaCl 146 mM, glucose 5.5 mM and LiCl 50 mM, pH 7.4). Cells are stimulated for 1 h at 37° C., 5% CO2 by addition of the compounds that are diluted in stimulation buffer containing LiCl. Assays are stopped by adding HTRF-conjugates (IP1-d2 and Anti-IP1 cryptate Tb) and lysis buffer, provided by the manufacturer. After an incubation time of 1 h at room temperature plates are measured using an EnVision™, Perkin Elmer. The obtained fluorescence ratios at 665/615 […] are then used to calculate the pEC50 values using Assay Explorer 3.3 Software (Accelrys, Inc.) by interpolation using an IP1 reference curve and subsequent sigmoidal curve fitting allowing for a variable hill slope.

Compound | EC50
Cc1ccccc1Cc1c(C(F)(F)F)ccc2c1CC[C@H]2Oc1ccc2c(c1)OC[C@H]2CC(=O)O [Example 35, {(S)-6-[(R)-4-(2-Methyl-benzyl)-5-trifluoromethyl-indan-1-yloxy]-2,3-dihydrobenzofuran-3-yl}-acetic acid] | 2 nM
O=C(O)C[C@@H]1COc2cc(O[C@@H]3CCc4c3ccc(C(F)(F)F)c4Cc3ccc(F)cc3F)ccc21 [Example 26, {(S)-6-[(R)-4-(2,4-Difluoro-benzyl)-5-trifluoromethyl-indan-1-yloxy]-2,3-dihydrobenzofuran-3-yl}-acetic acid] | 2 nM
O=C(O)C[C@@H]1COc2cc(O[C@@H]3CCc4c3ccc(C(F)(F)F)c4Cc3ccccc3F)ccc21 [Example 31, {(S)-6-[(R)-4-(2-Fluoro-benzyl)-5-trifluoromethyl-indan-1-yloxy]-2,3-dihydrobenzofuran-3-yl}-acetic acid] | 2 nM
N#Cc1ccc2c(c1Cc1ccc(F)cc1)CC[C@H]2Oc1ccc2c(c1)OC[C@H]2CC(=O)O [Example 23, {(S)-6-[(R)-5-Cyano-4-(4-fluoro-benzyl)-indan-1-yloxy]-2,3-dihydro-benzofuran-3-yl}-acetic acid] | 11 nM
N#Cc1ccc2c(c1Cc1cccc(F)c1)CC[C@H]2Oc1ccc2c(c1)OC[C@H]2CC(=O)O [Example 24, {(S)-6-[(R)-5-Cyano-4-(3-fluoro-benzyl)-indan-1-yloxy]-2,3-dihydro-benzofuran-3-yl}-acetic acid] | 12 nM
O=C(O)C[C@@H]1COc2cc(O[C@@H]3CCc4c3ccc(C(F)(F)F)c4Cc3ccc(Cl)cc3)ccc21 [Example 37, {(S)-6-[(R)-4-(4-Chloro-benzyl)-5-trifluoromethyl-indan-1-yloxy]-2,3-dihydrobenzofuran-3-yl}-acetic acid] | 4 nM
O=C(O)C[C@@H]1COc2cc(O[C@@H]3CCc4c3ccc(C(F)(F)F)c4Cc3ccc(O)cc3)ccc21 [Example 25, {(S)-6-[(R)-4-(4-Hydroxy-benzyl)-5-trifluoromethyl-indan-1-yloxy]-2,3-dihydrobenzofuran-3-yl}-acetic acid] | 2 nM
COc1cccc(Cc2c(C(F)(F)F)ccc3c2CC[C@H]3Oc2ccc3c(c2)OC[C@H]3CC(=O)O)c1 [Example 27, {(S)-6-[(R)-4-(3-Methoxy-benzyl)-5-trifluoromethyl-indan-1-yloxy]-2,3-dihydrobenzofuran-3-yl}-acetic acid] | 5 nM
N#Cc1ccc2c(c1Cc1ccccc1F)CC[C@H]2Oc1ccc2c(c1)OC[C@H]2CC(=O)O [Example 22, {(S)-6-[(R)-5-Cyano-4-(2-fluoro-benzyl)-indan-1-yloxy]-2,3-dihydro-benzofuran-3-yl}-acetic acid] | 6 nM
N#Cc1cccc(Cc2c(C(F)(F)F)ccc3c2CC[C@H]3Oc2ccc3c(c2)OC[C@H]3CC(=O)O)c1 [Example 34, {(S)-6-[(R)-4-(3-Cyano-benzyl)-5-trifluoromethyl-indan-1-yloxy]-2,3-dihydrobenzofuran-3-yl}-acetic acid] | 4 nM
O=C(O)C[C@@H]1COc2cc(O[C@@H]3CCc4c(Cc5c(F)cccc5F)ccc(F)c43)ccc21 [Example 19, {(S)-6-[(R)-4-(2,6-Difluoro-benzyl)-7-fluoro-indan-1-yloxy]-2,3-dihydrobenzofuran-3-yl}-acetic acid] | 23 nM
N#Cc1ccc(Cc2ccc(F)c3c2CC[C@H]3Oc2ccc3c(c2)OC[C@H]3CC(=O)O)cc1 [Example 20, {(S)-6-[(R)-4-(4-Cyano-benzyl)-7-fluoro-indan-1-yloxy]-2,3-dihydrobenzofuran-3-yl}-acetic acid] | 589 nM
O=C(O)C[C@@H]1COc2cc(O[C@@H]3CCc4c(Cc5ccc(F)cc5F)ccc(F)c43)ccc21 [Example 21, {(S)-6-[(R)-4-(2,4-Difluoro-benzyl)-7-fluoro-indan-1-yloxy]-2,3-dihydrobenzofuran-3-yl}-acetic acid] | 15 nM
N#Cc1ccc2c(c1Cc1cccc(F)c1F)CC[C@H]2Oc1ccc2c(c1)OC[C@H]2CC(=O)O [Example 32, {(S)-6-[(R)-5-Cyano-4-(2,3-difluoro-benzyl)-indan-1-yloxy]-2,3-dihydro-benzofuran-3-yl}-acetic acid] | 8 nM
CS(=O)(=O)c1ccc(Cc2c(C(F)(F)F)ccc3c2CC[C@H]3Oc2ccc3c(c2)OC[C@H]3CC(=O)O)cc1 [Example 17, {(S)-6-[(R)-4-(4-Methylsulfonyl-benzyl)-5-trifluoromethyl-indan-1-yloxy]-2,3-dihydro-benzofuran-3-yl}-acetic acid] | 24 nM
O=C(O)C[C@@H]1COc2cc(O[C@@H]3CCc4c3ccc(C(F)(F)F)c4Cc3cccc(F)c3)ccc21 [Example 29, {(S)-6-[(R)-4-(3-Fluoro-benzyl)-5-trifluoromethyl-indan-1-yloxy]-2,3-dihydrobenzofuran-3-yl}-acetic acid] | 3 nM
N#Cc1ccccc1Cc1c(C(F)(F)F)ccc2c1CC[C@H]2Oc1ccc2c(c1)OC[C@H]2CC(=O)O [Example 36, {(S)-6-[(R)-4-(2-Cyano-benzyl)-5-trifluoromethyl-indan-1-yloxy]-2,3-dihydrobenzofuran-3-yl}-acetic acid] | 2 nM
COc1ccc(Cc2c(C(F)(F)F)ccc3c2CC[C@H]3Oc2ccc3c(c2)OC[C@H]3CC(=O)O)cn1 [Example 38] | 1 nM
COc1ccc(OC)c(Cc2c(C(F)(F)F)ccc3c2CC[C@H]3Oc2ccc3c(c2)OC[C@H]3CC(=O)O)c1 [Example 40, {(S)-6-[(R)-4-(2,5-Dimethoxy-benzyl)-5-trifluoromethyl-indan-1-yloxy]-2,3-dihydrobenzofuran-3-yl}-acetic acid] | 5 nM
O=C(O)C[C@@H]1COc2cc(O[C@@H]3CCc4c(Cc5cc(F)cc(F)c5)ccc(F)c43)ccc21 [Example 18, {(S)-6-[(R)-4-(3,5-Difluoro-benzyl)-7-fluoro-indan-1-yloxy]-2,3-dihydrobenzofuran-3-yl}-acetic acid] | 27 nM
N#Cc1ccc2c(c1Cc1c(F)cccc1F)CC[C@H]2Oc1ccc2c(c1)OC[C@H]2CC(=O)O [Example 28, {(S)-6-[(R)-5-Cyano-4-(2,6-difluoro-benzyl)-indan-1-yloxy]-2,3-dihydro-benzofuran-3-yl}-acetic acid] | 5 nM
O=C(O)C[C@@H]1COc2cc(O[C@@H]3CCc4c3ccc(C(F)(F)F)c4Cc3ccc(F)cc3)ccc21 [Example 30, {(S)-6-[(R)-4-(4-Fluoro-benzyl)-5-trifluoromethyl-indan-1-yloxy]-2,3-dihydrobenzofuran-3-yl}-acetic acid] | 2 nM
COc1ccc(Cc2c(C(F)(F)F)ccc3c2CC[C@H]3Oc2ccc3c(c2)OC[C@H]3CC(=O)O)cc1 [Example 33, {(S)-6-[(R)-4-(4-Methoxy-benzyl)-5-trifluoromethyl-indan-1-yloxy]-2,3-dihydrobenzofuran-3-yl}-acetic acid] | 2 nM
